In ChEMBL document CHEMBL1800005, “Synthesis and biological activity of a series of tetrasubstituted-imidazoles as P2X(7) antagonists” (Bioorg Med Chem Lett, 2010):
≈ marks a conversion by molar mass, not a printed value.

Target: T1, Cytochrome P450 1A2 (Homo sapiens, UniProt P05177)
T1 sequence (P05177 whole entry): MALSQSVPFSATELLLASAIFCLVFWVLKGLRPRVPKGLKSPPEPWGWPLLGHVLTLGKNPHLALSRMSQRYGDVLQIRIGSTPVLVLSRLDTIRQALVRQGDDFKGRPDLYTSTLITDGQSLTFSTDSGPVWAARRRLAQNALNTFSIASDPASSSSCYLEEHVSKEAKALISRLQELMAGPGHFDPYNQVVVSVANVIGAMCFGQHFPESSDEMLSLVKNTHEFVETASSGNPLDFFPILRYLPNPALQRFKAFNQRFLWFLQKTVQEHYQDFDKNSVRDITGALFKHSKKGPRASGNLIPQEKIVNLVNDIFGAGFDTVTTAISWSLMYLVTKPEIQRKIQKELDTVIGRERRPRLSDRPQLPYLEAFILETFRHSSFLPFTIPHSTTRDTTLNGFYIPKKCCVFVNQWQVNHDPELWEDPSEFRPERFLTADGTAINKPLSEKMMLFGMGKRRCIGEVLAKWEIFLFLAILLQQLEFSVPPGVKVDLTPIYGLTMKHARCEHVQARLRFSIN
Experiment: Inhibition of CYP1A2
Format: ADME
Details: not given

Row | IC50 [nM] | Compound
1 | > 10000 | Cc1nc(-c2ccc(F)cc2F)n(C)c1CC(=O)NCc1ccc(F)cc1Cl [listing 1 of 2 here]

Target: Cytochrome P450 2C19 (Homo sapiens, UniProt P33261)
Sequence (P33261 whole entry): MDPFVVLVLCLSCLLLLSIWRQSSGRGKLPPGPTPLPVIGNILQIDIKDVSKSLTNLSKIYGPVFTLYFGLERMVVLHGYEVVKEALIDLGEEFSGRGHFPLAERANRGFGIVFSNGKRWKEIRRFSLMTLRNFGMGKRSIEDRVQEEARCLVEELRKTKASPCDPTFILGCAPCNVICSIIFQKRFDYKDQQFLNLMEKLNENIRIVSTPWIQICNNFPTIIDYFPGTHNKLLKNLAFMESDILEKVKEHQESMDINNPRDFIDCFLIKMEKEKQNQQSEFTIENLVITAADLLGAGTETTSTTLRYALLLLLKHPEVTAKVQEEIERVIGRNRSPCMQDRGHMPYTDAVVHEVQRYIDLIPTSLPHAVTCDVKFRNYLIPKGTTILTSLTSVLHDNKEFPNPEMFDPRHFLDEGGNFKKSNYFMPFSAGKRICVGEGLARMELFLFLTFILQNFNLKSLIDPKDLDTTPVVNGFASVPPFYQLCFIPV
Experiment: Inhibition of CYP2C19
Format: ADME
Details: not given

Row | IC50 [nM] | Compound
2 | > 10000 | Cc1nc(-c2ccc(F)cc2F)n(C)c1CC(=O)NCc1ccc(F)cc1Cl [listing 1 of 2 here]

Test system: Rattus norvegicus
Experiment: Dose normalized AUC (0 to 6 hrs) in rat at 3 mg/kg, po
Format: ADME, organism-based
Design: dose 3 mg/kg, route oral
Details: in vivo

Row | AUC/dose [kg·min/L] | Compound
3 | 6.8 | Cc1nc(-c2ccc(F)cc2F)n(C)c1CC(=O)NCc1ccc(F)cc1Cl [listing 2 of 2 here]

Target: T2, P2X purinoceptor 7 (Rattus norvegicus, UniProt Q64663)
T2 sequence (Q64663 whole entry): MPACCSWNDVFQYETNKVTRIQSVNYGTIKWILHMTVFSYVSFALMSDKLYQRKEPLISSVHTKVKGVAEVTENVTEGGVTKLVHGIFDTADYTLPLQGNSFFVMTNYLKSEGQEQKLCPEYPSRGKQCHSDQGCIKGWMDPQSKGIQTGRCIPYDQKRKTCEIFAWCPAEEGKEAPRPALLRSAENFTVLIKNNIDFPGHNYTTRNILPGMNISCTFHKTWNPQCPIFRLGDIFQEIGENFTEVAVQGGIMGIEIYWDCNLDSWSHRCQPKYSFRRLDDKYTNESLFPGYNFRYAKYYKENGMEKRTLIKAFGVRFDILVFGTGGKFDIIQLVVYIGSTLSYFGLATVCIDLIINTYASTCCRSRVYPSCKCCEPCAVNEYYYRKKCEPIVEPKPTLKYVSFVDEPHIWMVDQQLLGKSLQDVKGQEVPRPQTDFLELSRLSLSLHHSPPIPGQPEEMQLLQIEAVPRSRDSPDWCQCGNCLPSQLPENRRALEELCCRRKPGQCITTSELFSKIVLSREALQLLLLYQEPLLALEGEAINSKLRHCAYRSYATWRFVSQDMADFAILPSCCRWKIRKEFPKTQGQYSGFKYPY
Experiment: Antagonist activity at rat recombinant P2X7 receptor expressed in HEK293 cells by ethidium bromide […] assay
Format: functional, cell-based
Details: not given

Row | IC50 [nM] | Compound
4 | 251 | Cc1nc(-c2ccccc2)n(C)c1CC(=O)NCc1ccc(F)cc1Cl
5 | 158 | CCn1c(-c2ccccc2)nc(C)c1CC(=O)NCc1ccc(F)cc1Cl
6 | 1580 | Cc1nc(-c2ccccc2)n(C)c1CC(=O)NCc1cccc(Cl)c1C
7 | 631 | CCn1c(-c2ccccc2)nc(C)c1CC(=O)NCc1cccc(Cl)c1C
8 | 3160 | Cc1cccc(Cl)c1CNC(=O)Cc1c(C)nc(-c2ccccc2)n1C
9 | 501 | CCn1c(-c2ccccc2)nc(C)c1CC(=O)NCc1c(C)cccc1Cl
10 | 5010 | Cc1nc(-c2ccccc2)n(C)c1CC(=O)NCc1ccc(F)c(F)c1F
11 | 3980 | CCn1c(-c2ccccc2)nc(C)c1CC(=O)NCc1ccc(F)c(F)c1F
12 | 316 | Cc1nc(-c2ccc(F)cc2F)n(C)c1CC(=O)NCc1ccc(F)cc1Cl [listing 2 of 2 here]
13 | 158 | CCn1c(-c2ccc(F)cc2F)nc(C)c1CC(=O)NCc1ccc(F)cc1Cl
14 | 631 | Cc1nc(-c2ccc(F)cc2F)n(C)c1CC(=O)NCc1cccc(Cl)c1C
15 | 398 | CCn1c(-c2ccc(F)cc2F)nc(C)c1CC(=O)NCc1cccc(Cl)c1C
16 | 631 | CCn1c(-c2ccc(F)cc2F)nc(C)c1CC(=O)NCc1c(C)cccc1Cl
17 | > 10000 | Cc1nc(-c2ccc(F)cc2F)n(C)c1CC(=O)NCc1ccc(F)c(F)c1F
18 | 1000 | CCn1c(-c2ccc(F)cc2F)nc(C)c1CC(=O)NCc1ccc(F)c(F)c1F
19 | 251 | Cn1c(CC(=O)NCc2ccc(F)cc2Cl)cnc1-c1ccc(F)cc1F
20 | 398 | CCn1c(CC(=O)NCc2ccc(F)cc2Cl)cnc1-c1ccc(F)cc1F
21 | 631 | Cc1c(Cl)cccc1CNC(=O)Cc1cnc(-c2ccc(F)cc2F)n1C

Test system: not listed separately
Experiment: Solubility of the compound in water after 1 hr
Format: physicochemical
Details: not given

Row | solubility at 1 h [µg/mL] | Compound
22 | 920 (≈ 2260 µM) | Cc1nc(-c2ccc(F)cc2F)n(C)c1CC(=O)NCc1ccc(F)cc1Cl [listing 2 of 2 here]

Target: T3, P2X purinoceptor 7 (Homo sapiens, UniProt Q99572)
T3 sequence (Q99572 whole entry): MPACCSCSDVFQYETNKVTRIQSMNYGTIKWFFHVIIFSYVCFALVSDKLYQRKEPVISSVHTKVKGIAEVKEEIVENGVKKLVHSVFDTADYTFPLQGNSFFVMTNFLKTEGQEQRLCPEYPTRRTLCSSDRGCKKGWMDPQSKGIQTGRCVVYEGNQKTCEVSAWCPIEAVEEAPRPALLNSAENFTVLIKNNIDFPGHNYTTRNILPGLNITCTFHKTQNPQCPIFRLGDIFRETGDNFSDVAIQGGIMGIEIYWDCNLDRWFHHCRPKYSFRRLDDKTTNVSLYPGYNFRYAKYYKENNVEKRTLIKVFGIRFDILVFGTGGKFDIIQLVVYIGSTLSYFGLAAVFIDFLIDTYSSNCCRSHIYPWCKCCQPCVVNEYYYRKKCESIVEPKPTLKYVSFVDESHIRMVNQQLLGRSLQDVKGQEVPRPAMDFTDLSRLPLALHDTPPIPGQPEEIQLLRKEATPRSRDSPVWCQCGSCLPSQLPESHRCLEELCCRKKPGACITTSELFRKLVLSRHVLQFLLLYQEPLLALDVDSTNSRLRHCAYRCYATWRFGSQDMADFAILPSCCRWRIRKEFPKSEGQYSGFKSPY
Experiment: Antagonist activity at human recombinant P2X7 receptor expressed in HEK293 cells by ethidium bromide […] assay
Format: functional, cell-based
Details: not given

Row | IC50 [nM] | Compound
23 | 39.8 | Cc1nc(-c2ccccc2)n(C)c1CC(=O)NCc1ccc(F)cc1Cl
24 | 100 | CCn1c(-c2ccccc2)nc(C)c1CC(=O)NCc1ccc(F)cc1Cl
25 | 50.1 | Cc1nc(-c2ccccc2)n(C)c1CC(=O)NCc1cccc(Cl)c1C
26 | 50.1 | CCn1c(-c2ccccc2)nc(C)c1CC(=O)NCc1cccc(Cl)c1C
27 | 50.1 | Cc1cccc(Cl)c1CNC(=O)Cc1c(C)nc(-c2ccccc2)n1C
28 | 50.1 | CCn1c(-c2ccccc2)nc(C)c1CC(=O)NCc1c(C)cccc1Cl
29 | 100 | Cc1nc(-c2ccccc2)n(C)c1CC(=O)NCc1ccc(F)c(F)c1F
30 | 158 | CCn1c(-c2ccccc2)nc(C)c1CC(=O)NCc1ccc(F)c(F)c1F
31 | 39.8 | Cc1nc(-c2ccc(F)cc2F)n(C)c1CC(=O)NCc1ccc(F)cc1Cl [listing 2 of 2 here]
32 | 100 | CCn1c(-c2ccc(F)cc2F)nc(C)c1CC(=O)NCc1ccc(F)cc1Cl
33 | 31.6 | Cc1nc(-c2ccc(F)cc2F)n(C)c1CC(=O)NCc1cccc(Cl)c1C
34 | 39.8 | CCn1c(-c2ccc(F)cc2F)nc(C)c1CC(=O)NCc1cccc(Cl)c1C
35 | 50.1 | CCn1c(-c2ccc(F)cc2F)nc(C)c1CC(=O)NCc1c(C)cccc1Cl
36 | 63.1 | Cc1nc(-c2ccc(F)cc2F)n(C)c1CC(=O)NCc1ccc(F)c(F)c1F
37 | 126 | CCn1c(-c2ccc(F)cc2F)nc(C)c1CC(=O)NCc1ccc(F)c(F)c1F
38 | 200 | Cn1c(CC(=O)NCc2ccc(F)cc2Cl)cnc1-c1ccc(F)cc1F
39 | 501 | CCn1c(CC(=O)NCc2ccc(F)cc2Cl)cnc1-c1ccc(F)cc1F
40 | 63.1 | Cc1c(Cl)cccc1CNC(=O)Cc1cnc(-c2ccc(F)cc2F)n1C

Test system: not listed separately
Experiment: Solubility of compound in fed state simulated intestinal fluid at pH 5 after 1 hr
Format: physicochemical
Details: not given

Row | solubility at 1 h [µg/mL] | Compound
41 | 100 (≈ 269 µM) | Cc1nn(-c2ccccc2)c(C)c1CC(=O)NCc1ccc(F)cc1Cl
42 | 900 (≈ 2210 µM) | Cc1nc(-c2ccc(F)cc2F)n(C)c1CC(=O)NCc1ccc(F)cc1Cl [listing 2 of 2 here]

Target: Albumin (Homo sapiens, UniProt P02768)
Sequence (P02768 whole entry): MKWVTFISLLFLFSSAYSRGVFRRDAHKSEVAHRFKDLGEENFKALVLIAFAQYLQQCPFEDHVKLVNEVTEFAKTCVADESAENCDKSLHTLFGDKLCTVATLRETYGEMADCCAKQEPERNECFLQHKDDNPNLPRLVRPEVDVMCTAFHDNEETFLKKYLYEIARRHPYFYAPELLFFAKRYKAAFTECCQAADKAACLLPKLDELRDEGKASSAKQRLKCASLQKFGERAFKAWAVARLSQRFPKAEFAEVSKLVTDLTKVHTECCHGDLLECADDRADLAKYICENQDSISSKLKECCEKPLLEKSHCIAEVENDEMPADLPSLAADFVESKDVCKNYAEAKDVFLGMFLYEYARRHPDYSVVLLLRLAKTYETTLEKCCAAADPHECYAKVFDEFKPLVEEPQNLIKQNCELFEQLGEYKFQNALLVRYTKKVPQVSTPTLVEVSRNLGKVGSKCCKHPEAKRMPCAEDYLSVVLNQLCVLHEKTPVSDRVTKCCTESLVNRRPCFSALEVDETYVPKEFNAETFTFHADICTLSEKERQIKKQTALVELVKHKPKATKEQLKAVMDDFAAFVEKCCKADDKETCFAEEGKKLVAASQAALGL
Experiment: Protein binding in human serum albumin
Format: ADME
Details: read-out: PB

Row | fraction unbound | Compound
43 | 0.09 | Cc1nc(-c2ccc(F)cc2F)n(C)c1CC(=O)NCc1ccc(F)cc1Cl [listing 1 of 2 here]

Target: Cytochrome P450 2C9 (Homo sapiens, UniProt P11712)
Sequence (P11712 whole entry): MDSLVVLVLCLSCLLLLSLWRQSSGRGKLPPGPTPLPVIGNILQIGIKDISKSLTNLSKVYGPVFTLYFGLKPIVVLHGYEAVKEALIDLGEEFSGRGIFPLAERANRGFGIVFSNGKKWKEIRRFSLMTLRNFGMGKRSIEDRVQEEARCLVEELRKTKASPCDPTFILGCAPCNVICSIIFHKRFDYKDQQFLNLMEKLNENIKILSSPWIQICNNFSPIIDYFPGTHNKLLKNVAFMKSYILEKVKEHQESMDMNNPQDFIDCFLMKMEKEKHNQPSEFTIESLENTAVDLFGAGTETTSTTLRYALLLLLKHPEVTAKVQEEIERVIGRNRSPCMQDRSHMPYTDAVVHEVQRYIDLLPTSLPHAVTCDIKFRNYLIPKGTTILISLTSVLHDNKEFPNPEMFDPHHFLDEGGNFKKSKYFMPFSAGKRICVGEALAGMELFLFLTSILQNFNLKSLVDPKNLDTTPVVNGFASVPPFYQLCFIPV
Experiment: Inhibition of CYP2C9
Format: ADME
Details: not given

Row | IC50 [nM] | Compound
44 | > 10000 | Cc1nc(-c2ccc(F)cc2F)n(C)c1CC(=O)NCc1ccc(F)cc1Cl [listing 1 of 2 here]

Test system: not listed separately
Experiment: Dissociation constant, pKa of the compound
Format: physicochemical
Details: not given

Row | pKa | Compound
45 | 6.47 | Cc1nc(-c2ccc(F)cc2F)n(C)c1CC(=O)NCc1ccc(F)cc1Cl [listing 1 of 2 here]

Target: Cytochrome P450 2D6 (Homo sapiens, UniProt P10635)
Sequence (P10635 whole entry): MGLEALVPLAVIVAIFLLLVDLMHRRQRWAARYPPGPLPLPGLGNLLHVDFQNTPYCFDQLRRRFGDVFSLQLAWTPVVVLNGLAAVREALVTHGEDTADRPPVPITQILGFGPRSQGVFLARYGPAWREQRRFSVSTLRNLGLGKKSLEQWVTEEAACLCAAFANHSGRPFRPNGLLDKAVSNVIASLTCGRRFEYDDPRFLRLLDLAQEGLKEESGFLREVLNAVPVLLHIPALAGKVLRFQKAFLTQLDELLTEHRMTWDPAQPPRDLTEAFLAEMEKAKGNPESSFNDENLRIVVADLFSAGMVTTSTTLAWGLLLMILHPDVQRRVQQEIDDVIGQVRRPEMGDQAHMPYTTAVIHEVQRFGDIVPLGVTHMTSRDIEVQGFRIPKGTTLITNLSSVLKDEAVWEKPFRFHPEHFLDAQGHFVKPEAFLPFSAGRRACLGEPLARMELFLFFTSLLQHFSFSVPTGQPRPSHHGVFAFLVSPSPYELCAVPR
Experiment: Inhibition of CYP2D6
Format: ADME
Details: not given

Row | IC50 [nM] | Compound
46 | > 10000 | Cc1nc(-c2ccc(F)cc2F)n(C)c1CC(=O)NCc1ccc(F)cc1Cl [listing 1 of 2 here]

Test system: not listed separately
Experiment: Solubility of compound in simulated gastric fluid at pH 1.2 after 1 hr
Format: physicochemical
Details: not given

Row | solubility at 1 h [µg/mL] | Compound
47 | 410 (≈ 1100 µM) | Cc1nn(-c2ccccc2)c(C)c1CC(=O)NCc1ccc(F)cc1Cl
48 | > 1000 | Cc1nc(-c2ccc(F)cc2F)n(C)c1CC(=O)NCc1ccc(F)cc1Cl [listing 2 of 2 here]

Test system: not listed separately
Experiment: Tmax in rat at 3 mg/kg, po
Format: ADME, organism-based
Design: dose 3 mg/kg, route oral
Details: in vivo

Row | Tmax [min] | Compound
49 | 30 | Cc1nc(-c2ccc(F)cc2F)n(C)c1CC(=O)NCc1ccc(F)cc1Cl [listing 2 of 2 here]

Test system: not listed separately
Experiment: Cmax in rat at 3 mg/kg, po
Format: ADME, organism-based
Design: dose 3 mg/kg, route oral
Details: in vivo

Row | Cmax [nM] | Compound
50 | 430 | Cc1nc(-c2ccc(F)cc2F)n(C)c1CC(=O)NCc1ccc(F)cc1Cl [listing 2 of 2 here]

Target: Cytochrome P450 3A4 (Homo sapiens, UniProt P08684)
Sequence (P08684 whole entry): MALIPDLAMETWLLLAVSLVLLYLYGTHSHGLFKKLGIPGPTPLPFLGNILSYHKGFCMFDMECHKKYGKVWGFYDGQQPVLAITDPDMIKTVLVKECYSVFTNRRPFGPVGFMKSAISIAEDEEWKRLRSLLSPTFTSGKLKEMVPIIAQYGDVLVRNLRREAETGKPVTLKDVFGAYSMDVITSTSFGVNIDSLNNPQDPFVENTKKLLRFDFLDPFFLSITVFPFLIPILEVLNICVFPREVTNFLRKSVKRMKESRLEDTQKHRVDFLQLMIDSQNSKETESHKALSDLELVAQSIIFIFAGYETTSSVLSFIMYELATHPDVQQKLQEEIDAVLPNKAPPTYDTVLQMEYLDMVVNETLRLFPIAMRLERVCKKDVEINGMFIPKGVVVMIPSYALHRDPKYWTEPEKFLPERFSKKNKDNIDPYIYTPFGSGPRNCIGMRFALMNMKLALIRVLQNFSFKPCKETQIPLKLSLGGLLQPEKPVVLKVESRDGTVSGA
Experiment: Inhibition of CYP3A4 using diethoxyflourescein as a substrate
Format: ADME
Details: not given

Row | IC50 [nM] | Compound
51 | 5500 | Cc1nc(-c2ccc(F)cc2F)n(C)c1CC(=O)NCc1ccc(F)cc1Cl [listing 1 of 2 here]

Test system: not listed separately
Experiment: Solubility of compound in fasted state simulated intestinal fluid at pH 6.5 after 1 hr
Format: physicochemical
Details: not given

Row | solubility at 1 h [µg/mL] | Compound
52 | 120 (≈ 323 µM) | Cc1nn(-c2ccccc2)c(C)c1CC(=O)NCc1ccc(F)cc1Cl
53 | 370 (≈ 907 µM) | Cc1nc(-c2ccc(F)cc2F)n(C)c1CC(=O)NCc1ccc(F)cc1Cl [listing 2 of 2 here]
